PubChem BioAssay AID720588 (Broad Institute, 2013)
Values joined by “and” are separate entries in the source; they are usually repeats but may differ in a detail not shown here. Equal entries are not always repeated.

Each compound was assayed on HEK293T viability, CellTiter-Glo ATP luminescence, 72 h (assay: HEK293T cell cytotoxicity, dose response, cytotoxicity control, CellTiter-Glo luminescence, cherry-pick, set 3 (AID 720588);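 further: potency for luminescence loss meaning cytotoxic compounds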).

Structure (SMILES)	AC35
O=C(C[C@H]1C[C@H]2c3cc(NS(=O)(=O)c4ccc(F)cc4)ccc3O[C@H]2[C@H](CO)O1)NCc1ccc(Oc2ccccc2)cc1	16 µM
Nc1nc2cc3c(cc2cc1C(=O)NCCc1c[nH]c2ccccc12)OCO3	5.04 µM
CC12CCC(O)CC1CCC1C2CCC2(C)C(C3=CC(=O)OC3)CCC12O (stereo not given)	0.375 µM
CCCCCCCCNC(C)C(O)c1ccc(SC(C)C)cc1 (stereo not given)	12.2 µM
CCN1/C(=C/C=C/c2oc3ccc(-c4ccccc4)cc3[n+]2CC)Oc2ccc(-c3ccccc3)cc21	4.89 µM
CN(C)CC1CCC/C(=C\c2ccc(OC(=O)c3ccc(Cl)cc3)cc2)C1=O (stereo not given)	11.3 µM
O=C(Nc1ccc2c(c1)OCO2)N1C[C@@H]2N[C@H](C1)C2c1ccc(C=Cc2ccccc2)cc1 (stereo not given in full)	9.59 µM
COc1ccccc1CNC(=O)C[C@@H]1CC[C@H]2[C@@H](COC[C@H](O)CN2C(=O)Nc2ccc(C(F)(F)F)cc2)O1	13.5 µM
CN1c2ccc(-c3ccc(C#N)cc3)cc2[C@H]2[C@H](CCN2S(=O)(=O)c2cccc(F)c2)[C@@H]1CO	23.4 µM
COc1ccc(-c2cc(CNc3nc(NC(C)C)nc4cc(-c5ccccc5)sc34)on2)cc1	12.5 µM
COc1cccc(-c2cc(NC=O)c3ncc(-c4ccc(C(C)=O)cc4)n3c2)c1	8.98 µM
COc1ccc(Cn2cc3c(-c4ccc(F)cc4)nnc-3c3cc(OC)c(OC)cc32)cc1	10.2 µM
CCCCCCCCCCCCCCCCCCNc1ccn(C2OC(COP(=O)(O)OCC3OC(n4cc(F)c(=O)[nH]c4=O)CC3O)C(O)C2O)c(=O)n1 (stereo not given)	6.6 µM
C[C@]12CC[C@H](O)C[C@H]1CC[C@@H]1C2CC[C@]2(C)[C@@H](C3=CC(=O)OC3)[C@@H](O)C[C@]12O (stereo not given in full)	1.86 µM
Nc1nc(=S)c2[nH]cnc2[nH]1	5.79 µM
COC(=O)CC1(C(=O)OC)Oc2ccc(Br)cc2C(=O)N1c1cccc(Cl)c1Cl (stereo not given)	13.1 µM
Cc1ccc(C(=O)O/N=C(\N)c2ccccn2)cc1	14.9 µM
N#C[C@@H]1[C@H](c2ccc(C#Cc3ccc(F)cc3)cc2)[C@@H](CO)N1C(=O)Nc1ccc(F)cc1	12.6 µM
O=c1c2ccccc2nc(/C=C/c2cc(Br)ccc2O)n1CCCO	14.4 µM
NC1=CC(=O)C(=O)c2cccnc21	20.7 µM
C=CCOC(=O)c1sc(NC(=O)c2ccc(OC)cc2)nc1C	0.901 µM
COc1ccc([Si](C)(C)[C@H]2[C@H](CCO)O[C@@]3(C(=O)N(c4ccccc4)c4ccccc43)[C@@H]2C)cc1	15 µM
O=C1Nc2cc(C(=O)NCCN3CCCCCC3)ccc2S/C1=C\c1ccccc1	11.7 µM

Structure (SMILES)	AC35
C(=Cc1nc2ccccc2o1)c1ccc2c(c1)OCO2	2.47 µM
C[C@@H]1CN([C@@H](C)CO)C(=O)c2cc(NC(=O)Nc3ccccc3)ccc2O[C@@H]1CN(C)Cc1ccc(C(=O)Nc2ccccc2N)cc1	8.46 µM
O=C1/C(=C\c2ccccc2)CN(C(=O)CCN2CCCCC2)C/C1=C/c1ccccc1	5.13 µM
COc1ccc(/C=C(/C(=O)c2cccs2)N2C=CC=CC2=C(C#N)C#N)cc1	6.97 µM
COC(=O)C1=C(C)N(Cc2cccc(C(F)(F)F)c2)C(=NCc2ccc(OC)cc2)NC1c1cccc(F)c1 (stereo not given)	4.96 µM
BrC(=C\c1ccccc1)/C=N/n1cnnc1	17.8 µM
Nc1nc(N)c2cc(Sc3ccc4ccccc4c3)ccc2n1	4.44 µM
CNC[C@H](CC1CCCCC1)NC[C@H](CO)NCCc1cccc(C(F)(F)F)c1	10.8 µM
CC(=O)Oc1ccc(-c2ccc(C(=O)Nc3cccc(S(=O)(=O)N4CCOCC4)c3)cc2)cc1	0.274 µM
C(=N\Nc1nc2ccccc2[nH]1)/c1ccccn1	6.22 µM
C[C@@H]1CN([C@@H](C)CO)C(=O)c2cc(NC(=O)c3ccccc3)ccc2O[C@@H](C)CCCCO[C@H]1CN(C)C(=O)Nc1cccc2ccccc12	0.637 µM
C[C@@H]1CCCCO[C@H](CN(C)Cc2ccc(C(F)(F)F)cc2)[C@H](C)CN([C@H](C)CO)C(=O)c2cc(NC(=O)CCCN(C)C)ccc2O1	14.6 µM
CN(C)c1ccc(N=Nc2nc3ccccc3n2C)cc1	12.5 µM
Nc1nc(N)c(-c2cccc(C(F)(F)F)c2)c(Cc2cccc(C(F)(F)F)c2)n1	8.95 µM
C[C@@H]1CN([C@@H](C)CO)C(=O)c2cccc(NS(=O)(=O)c3ccccc3)c2O[C@@H]1CN(C)Cc1ccc(C(=O)Nc2ccccc2N)cc1	2.29 µM
CC(=NNc1ccc2ccccc2n1)c1ccccn1	1.12 µM
CCc1nc(N)nc(N)c1-c1ccc(Cl)cc1	15.9 µM
N#CC(=C1C=CC(=NO)C(Cl)=C1)c1ccccc1	11.2 µM
COC(=O)C1=C(C)N(Cc2ccccc2C(F)(F)F)C(=NCc2ccc(OC)cc2)NC1c1ccc(C(F)(F)F)cc1 (stereo not given)	9.47 µM
S=c1[nH]nc(-c2cc(-c3ccccc3)n[nH]2)n1/N=C/C(Br)=C/c1ccccc1	12.4 µM
CC12CCC3C(CCC4(O)CC(O)CCC34C=NO)C1(O)CCC2C1=COC(=O)C1 (stereo not given)	0.25 µM
COc1ccc(CC(N)c2csc(NC(=O)Nc3cccc(C(F)(F)F)c3)n2)cc1 (stereo not given)	10.1 µM
CCN1/C(=C/C(C)=C/c2sc3ccccc3[n+]2CC)Sc2ccccc21	0.301 µM

Structure (SMILES)	AC35
C/C(=C\c1ccccc1)C(=O)N1CCC=CC1=O	22.3 µM
C[C@@H]1CN([C@@H](C)CO)C(=O)c2cc(N(C)C)ccc2O[C@H]1CN(C)Cc1ccc(C(=O)Nc2ccccc2N)cc1	24.6 µM
Cc1ccc(C)c(S(=O)(=O)N2CCN(c3ncnc4sccc34)CC2)c1	4.95 µM
Nc1ccc(Cn2ccc3c4c(N)nc(N)nc4ccc32)cc1	0.125 µM
C=C(C(=O)c1ccccc1)C(C)C(=C)C(=O)c1ccccc1	5.24 µM
C[C@H]1O[C@@H](O[C@H]2[C@@H](O)C[C@H](O[C@H]3[C@@H](O)C[C@H](O[C@H]4CC[C@@]5(C)[C@H](CC[C@@H]6[C@@H]5C[C@@H](O)[C@]5(C)[C@@H](C7=CC(=O)OC7)CC[C@]65O)C4)O[C@@H]3C)O[C@@H]2C)C[C@H](O)[C@@H]1O	0.0823 µM
O=C1c2ccccc2C(=O)c2cc(N3CCCCC3)ccc21	6.31 µM
CC(=O)OC1CC(OC2C(O)CC(OC3C(O)CC(OC4CCC5(C)C(CCC6C5CC(O)C5(C)C(C7=CC(=O)OC7)CCC65O)C4)OC3C)OC2C)OC(C)C1OC1OC(CO)C(O)C(O)C1O (stereo not given)	0.182 µM
C[C@@H]1CN([C@@H](C)CO)S(=O)(=O)c2ccc(C#Cc3ccncc3)cc2O[C@H]1CN(C)S(=O)(=O)c1ccccc1	24.5 µM
C=C1C(=O)OC2C1CCC(C)C1C=CC(=O)C12C (stereo not given)	8.71 µM
COc1ccccc1C(CCNCc1ccc(N(C)C)cc1)c1ccc(OC(C)C)cc1 (stereo not given)	10.7 µM
Cc1ccc(S(=O)(=O)Nc2ccc3c(c2)C(=O)N([C@@H](C)CO)C[C@H](C)[C@@H](CN(C)Cc2ccc(C(F)(F)F)cc2)OCCCC[C@@H](C)O3)cc1	12.8 µM
O=C(CCc1ccccc1)NC(c1cccs1)c1cc(Cl)c2cccnc2c1O (stereo not given)	7.93 µM
COC(=O)C[C@H]1CC[C@@H]2[C@H](COc3ccc(NC(=O)Nc4cccc(Cl)c4)cc3C(=O)N2C)O1	17.8 µM
COc1ccc(-c2cnc3c(NC=O)cc(-c4ccccc4OC)cn23)cc1OC	9.05 µM
Cc1cccc(CN2C(=O)/C(=C\c3ccc(C(=O)NCCCN4CCN(C)CC4)cc3)Oc3ccccc32)c1	13.6 µM
COc1ccccc1-c1ccc(OCCCN2CCC(C(O)(c3ccccc3)c3ccccc3)CC2)cc1	10.3 µM
O=C(Nc1ccccc1F)N1CCCCN2[C@H](CO)[C@H](c3ccc(/C=C/c4ccccc4)cc3)[C@H]2C1	13.7 µM
C[C@@H]1CCCCO[C@H](CN(C)Cc2ccc(C(=O)Nc3ccccc3N)cc2)[C@@H](C)CN([C@H](C)CO)C(=O)c2cc(NS(=O)(=O)c3ccc(Cl)cc3)ccc2O1	17.3 µM
C[C@@H]1CN([C@@H](C)CO)C(=O)c2cccc(NS(=O)(=O)c3ccc(Cl)cc3)c2O[C@@H]1CN(C)Cc1ccc(C(=O)Nc2ccccc2N)cc1	6.6 µM
COC(=O)c1ccccc1-c1c2ccc(=N)cc-2oc2cc(N)ccc12	15.3 µM
COc1ccc(OC)c(Cc2cnc3nc(N)nc(N)c3c2C)c1	0.151 µM
O=C(O)c1ccc(N/N=C/c2ccc3c(c2)OCO3)cc1	7.33 µM

Structure (SMILES)	AC35
C=C(C(=O)c1ccccc1)C(C(=C)C(=O)c1ccccc1)c1ccc(OC)cc1	5.68 µM
C[C@H](O)C#Cc1ccc2c(c1)O[C@@H](CN(C)Cc1ccc(-c3ccccc3)cc1)[C@H](C)CN([C@@H](C)CO)S2(=O)=O	14.7 µM and 11.2 µM
C[C@@H]1CN([C@H](C)CO)C(=O)c2cc(NC(=O)Nc3ccccc3)ccc2O[C@@H]1CN(C)Cc1ccc(C(=O)Nc2ccccc2N)cc1	12.7 µM
Cc1nc(N)nc(N)c1CCCc1ccc(Cl)c(Cl)c1	3.58 µM
O=C(Nc1ccc(F)cc1)N1CCCCN2[C@@H](CO)[C@H](c3ccc(C4=CCCCC4)cc3)[C@@H]2C1	9.39 µM
COc1ccc(S(=O)(=O)Nc2ccc3c(c2)C(=O)N([C@H](C)CO)C[C@@H](C)[C@@H](CN(C)Cc2ccc(C(=O)Nc4ccccc4N)cc2)O3)cc1	15 µM
CN=c1scc(-c2ccccc2F)n1/N=C/c1ccc[nH]1	10.8 µM
CC(=O)OC1CC2(O)C3CCC4CC(O)CCC4(C)C3CCC2(C)C1C1=CC(=O)OC1 (stereo not given)	0.262 µM
N#C[C@@H]1[C@H](c2ccc(C#Cc3ccccc3F)cc2)[C@@H](CO)N1C(=O)c1cccnc1	25.4 µM
C[C@@H]1CCCCO[C@H](CN(C)Cc2ccc(C(=O)Nc3ccccc3N)cc2)[C@@H](C)CN([C@H](C)CO)C(=O)c2cc(NS(=O)(=O)c3ccc(F)cc3)ccc2O1	13.3 µM
O=c1ccc2[n+]([O-])c3ccc(O)cc3oc-2c1	4.57 µM
C[C@@H]1CN([C@@H](C)CO)C(=O)Cc2cc(N(C)C)ccc2O[C@H]1CN(C)Cc1ccc(C(=O)Nc2ccccc2N)cc1	7.46 µM
Nc1ccc(Oc2cccc(Oc3ccc(N)cc3)c2)cc1	6.82 µM
COc1ccc(S(=O)(=O)Nc2ccc3c(c2)C(=O)N([C@H](C)CO)C[C@@H](C)[C@@H](CN(C)CC2CCCCC2)OCCCC[C@H](C)O3)cc1	14.1 µM
CCCCCCCCCCCCCCCCn1cc[n+](C)c1	10.5 µM
OC[C@H]1[C@@H](c2ccc(C#CC3CCCC3)cc2)[C@@H]2CN(CCC(F)(F)F)CCCCN12	10.4 µM
Oc1cccc(-c2nnc(-c3cccc(O)c3)nn2)c1	7.1 µM
CC(C)(C)c1ccc(/C=N/Nc2ccc(C(=O)O)cc2)cc1	16.5 µM
O=C(O)c1ccc(N/N=C/c2ccc3nccnc3c2)cc1	11.9 µM
Oc1c(C(c2ccc(Cl)cc2)N2CCCC2)cc(Cl)c2cccnc12 (stereo not given)	6.54 µM
Cc1ccc(S(=O)(=O)Nc2ccc3c(c2)C(=O)N([C@@H](C)CO)C[C@@H](C)[C@@H](CN(C)Cc2ccc(C(=O)Nc4ccccc4N)cc2)O3)cc1	7.11 µM
